In patent US9187467B2, “2-phenyl benzothiazole linked imidazole compounds as potential anticancer agents and process for the preparation thereof” (Council of Scientific and Industrial Research, priority 2012, dated 2015):

Experiments:
HL-60 (TB) = assay: SRB anticancer assay, leukemia; assay type: cell-based, human; set-up: Log10GI50: unit not given here
SR = assay: SRB anticancer assay, leukemia; assay type: cell-based, human; conditions: Homo sapiens, 48 h
NCI-H226 = assay: SRB anticancer assay, non-small lung; assay type: cell-based, human; conditions: Homo sapiens, NCI-H226, 48 h
NCI-H23 = assay: SRB anticancer assay, non-small lung; assay type: cell-based, human
NCI-H322M = assay: SRB anticancer assay, non-small lung; assay type: cell-based, human; conditions: Homo sapiens, 48 h
NCI-H460 = assay: SRB anticancer assay, non-small lung; assay type: cell-based, human; conditions: Homo sapiens, NCI-H460, 48 h
NCI-H522 = assay: SRB anticancer assay, non-small lung; assay type: cell-based, human; set-up: Log10GI50: unit not given here
SF-268 = assay: SRB anticancer assay, CNS; assay type: cell-based, human; set-up: Log10GI50: unit not given here
SF-539 = assay: SRB anticancer assay, CNS; assay type: cell-based, human; set-up: Log10GI50: unit not given here
SNB-19 = assay: SRB anticancer assay, CNS; assay type: cell-based, human; set-up: Log10GI50: unit not given here
U251 = assay: SRB anticancer assay, CNS; assay type: cell-based, human; set-up: Log10GI50: unit not given here
IGROV1 = assay: SRB anticancer assay, ovarian; assay type: cell-based, human; conditions: Homo sapiens, IGROV-1; IGROV1, 48 h
OVCAR-5 = assay: SRB anticancer assay, ovarian; assay type: cell-based, human; conditions: Homo sapiens, OVCAR-5, 48 h
OVCAR-8 = assay: SRB anticancer assay, ovarian; assay type: cell-based, human; set-up: Log10GI50: unit not given here
SK-OV-3 = assay: SRB anticancer assay, ovarian; assay type: cell-based, human; conditions: Homo sapiens, SK-OV-3, 48 h
786-0 = assay: SRB anticancer assay, renal; assay type: cell-based, human
A498 = assay: SRB anticancer assay, renal; assay type: cell-based, human; set-up: Log10GI50: unit not given here
ACHN = assay: SRB anticancer assay, renal; assay type: cell-based, human; set-up: Log10GI50: unit not given here
SN12C = assay: SRB anticancer assay, renal; assay type: cell-based, human; set-up: Log10GI50: unit not given here
UO-31 = assay: SRB anticancer assay, renal; assay type: cell-based, human; set-up: Log10GI50: unit not given here
RXF 393 = assay: SRB anticancer assay, renal; assay type: cell-based, human; set-up: Log10GI50: unit not given here
PC-3 = assay: SRB anticancer assay, prostate; assay type: cell-based, human; set-up: Log10GI50: unit not given here
DU-145 = assay: SRB anticancer assay, prostate; assay type: cell-based, human; set-up: Log10GI50: unit not given here
MCF7 = assay: SRB anticancer assay, breast; assay type: cell-based, human; conditions: Homo sapiens, MCF7, 48 h
BT-549 = assay: SRB anticancer assay, breast; assay type: cell-based, human; set-up: Log10GI50: unit not given here
T-47D = assay: SRB anticancer assay, breast; assay type: cell-based; conditions: Homo sapiens, T47D, 48 h
LOX IMVI = assay: SRB anticancer assay, melanoma; assay type: cell-based, human; set-up: Log10GI50: unit not given here
SK-MEL-2 = assay: SRB anticancer assay, melanoma; assay type: cell-based, human
SK-MEL-28 = assay: SRB anticancer assay, melanoma; assay type: cell-based, human; set-up: Log10GI50: unit not given here
UACC-62 = assay: SRB anticancer assay, melanoma; assay type: cell-based, human
K562 (Leukemia) cells = assay: Cell cycle distribution by flow cytometry; assay type: cell-based
Outline: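 Compound-treated K562 cells analysed for cell-cycle distribution by flow cytometry; values given as % of cells.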

[1] = system: MCF-7 (Breast carcinoma) cells; assay: Cell cycle distribution by flow cytometry (FACS); assay type: cell-based; conditions: MCF-7 cells, 2 μM, 24h
Outline: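 MCF-7 cells treated with compound at 2 μM for 24h, DMSO (0.25%) as control. Cell cycle distribution read by flow cytometry.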

COc1ccc(-c2cncn2-c2ccc(-c3nc4cc(OC)c(OC)c(OC)c4s3)cc2)cc1N [Compound 7j, 2-Methoxy-5-(1-(4-(5,6,7-trimethoxybenzo[d]thiazol-2-yl)phenyl)-1H-imidazol-5-yl)benzeneamine]
Log10GI50 (HL-60 (TB); HL-60(TB), present compounds): −5.66
GI50 (HL-60 (TB); Homo sapiens, HL-60, 48 h): 2.2 µM
GI50 (SR): 3.43 µM
GI50 (NCI-H226): 6.7 µM
GI50 (NCI-H23; Homo sapiens, NCI-H23, 48 h): 4.76 µM
Log10GI50 (NCI-H23; NCI-H23, present compounds): −5.32 log10(M)
GI50 (NCI-H322M): 25.7 µM
GI50 (NCI-H460): 4.69 µM
GI50 (NCI-H522; Homo sapiens, NCI-H522, 48 h): 3.37 µM
Log10GI50 (NCI-H522; NCI-H522, present compounds): −5.47
GI50 (SF-268; Homo sapiens, SF-268, 48 h): 47 µM
Log10GI50 (SF-268; SF-268, present compounds): −4.33
GI50 (SF-539; Homo sapiens, SF-539, 48 h): > 100 µM
Log10GI50 (SF-539; SF-539, present compounds): >−4.0
GI50 (SNB-19; Homo sapiens, SNB-19, 48 h): > 100 µM
Log10GI50 (SNB-19; SNB-19, present compounds): >−4.0
GI50 (U251; Homo sapiens, U-251, U251, 48 h): 6 µM
Log10GI50 (U251; U251, present compounds): −5.22
GI50 (IGROV1): 4.9 µM
GI50 (OVCAR-5): > 100 µM
GI50 (OVCAR-8; Homo sapiens, OVCAR-8, 48 h): 6.19 µM
Log10GI50 (OVCAR-8; OVCAR-8, present compounds): −5.21
GI50 (SK-OV-3): > 100 µM
Log10GI50 (786-0; 786-0, present compounds): −5.24 log10 M
GI50 (786-0; Homo sapiens, 786-0, 48 h): 5.73 µM
Log10GI50 (A498; A498, present compounds): −5.32
GI50 (A498; Homo sapiens, A498, 48 h): 4.83 µM
GI50 (ACHN; Homo sapiens, 48 h): 5.59 µM
Log10GI50 (ACHN; present compounds): −5.25
GI50 (SN12C; Homo sapiens, 48 h): 9.44 µM
Log10GI50 (SN12C; present compounds): −5.03
GI50 (UO-31; Homo sapiens, UO-31, 48 h): 1.99 µM
Log10GI50 (UO-31; UO-31, present compounds): −5.70
GI50 (RXF 393; Homo sapiens, RXF 393, 48 h): 5.98 µM
Log10GI50 (RXF 393; RXF 393, present compounds): −5.22
GI50 (PC-3; Homo sapiens, PC-3, 48 h): 2.59 µM
Log10GI50 (PC-3; PC-3, present compounds): −5.59
Log10GI50 (DU-145; DU-145, present compounds): −5.20
GI50 (DU-145; Homo sapiens, DU-145, 48 h): 6.38 µM
GI50 (MCF7): 4.07 µM
Log10GI50 (BT-549; BT-549, present compounds): −5.21
GI50 (BT-549; Homo sapiens, BT-549, 48 h): 3.02 µM
GI50 (T-47D): 8.6 µM
GI50 (LOX IMVI; Homo sapiens, 48 h): 4.75 µM
Log10GI50 (LOX IMVI; present compounds): −5.32
GI50 (SK-MEL-2; Homo sapiens, SK-MEL-2, 48 h): 6.04 µM
Log10GI50 (SK-MEL-2; SK-MEL-2, present compounds): −5.22 M
GI50 (SK-MEL-28; Homo sapiens, SK-MEL-28, 48 h): 13.7 µM
Log10GI50 (SK-MEL-28; SK-MEL-28, present compounds): −4.86
GI50 (UACC-62; Homo sapiens, UACC-62, 48 h): > 100 µM
Log10GI50 (UACC-62; UACC-62, present compounds): −5.04 log10 M
cells in G2/M phase (K562 (Leukemia) cells): 12%
cells in G2/M phase [1]: 23%
